Laboratory results: EPA's ToxRefDB 2

How the values were obtained:
rat [1] = conditions: Prenatal developmental toxicity study, wistar, Dermal, Topical, dose end: 16 GD
rat [2] = conditions: Developmental neurotoxicity study; sprague dawley; Oral; Gavage/Intubation; dose end: 90 PND; group: cannot be grouped; developmental / developmental landmark / eye opening / eye opening + reproductive / offspring survival early / dead fetuses / dead fetuses…
rabbit = conditions: Prenatal developmental toxicity study, new zealand white, Dermal, Topical, dose end: 19 GD
rat [3] = conditions: Developmental neurotoxicity study, sprague dawley, Oral, Gavage/Intubation, dose end: 97 PND, group: cannot be grouped
rat [4] = conditions: Prenatal developmental toxicity study; wistar; Oral; Gavage/Intubation; dose end: 15 GD; group: developmental; developmental / developmental malformation / bone / incomplete ossification + developmental / developmental malformation / bone / …
rat [5] = conditions: Subchronic oral toxicity in rodents, sprague dawley, Gavage/Intubation, dose end: 12 week, group: systemic, systemic / clinical chemistry / alkaline phosphatase (alp/alk) / alkaline phosphatase (alp/alk) + systemic / clinical chemistry / albumin / …
rat [6] = conditions: Subchronic oral toxicity in rodents, sprague dawley, Gavage/Intubation, dose end: 13 week, group: systemic
rat [7] = conditions: Prenatal developmental toxicity study, sprague dawley, Injection, Subcutaneous, dose end: 8 GD
mouse [8] = conditions: Sub-acute repeat dose toxicity, other, Oral, Gavage/Intubation, dose end: 21 day, group: systemic
rat [9] = conditions: Multigenerational reproductive toxicity study, wistar, Oral, Feed, dose end: 2 generation
rat [10] = conditions: Combined chronic toxicity/carcinogenicity, other, Oral, Feed, dose end: 104 week, group: systemic
rat [11] = conditions: Peri- and post-natal toxicity study (Segment III), wistar, Oral, [Not Specified], dose end: 21 PND
mouse [12] = conditions: Prenatal developmental toxicity study, cd1, Oral, Gavage/Intubation, dose end: 16 GD, group: maternal
mouse [13] = conditions: Combined chronic toxicity/carcinogenicity; other; Oral; Feed; dose end: 101 week; group: systemic; systemic / pathology microscopic / liver / enlarged vacuoles + systemic / pathology microscopic / liver / focal cellular change + systemic…
mouse [14] = conditions: Subchronic oral toxicity in rodents, Feed, dose end: 90 day, group: systemic, systemic / pathology microscopic / liver / clear cell focus + systemic / pathology microscopic / liver / [other] + systemic / clinical …
dog = conditions: Chronic toxicity, beagle, Oral, Capsule, dose end: 52 week, group: systemic
rat [15] = conditions: Subchronic oral toxicity in rodents, wistar, Feed, dose end: 3 month, group: systemic
rat [16] = conditions: Subchronic oral toxicity in rodents, wistar, Feed, dose end: 6 month, group: systemic
mouse [17] = conditions: Prenatal developmental toxicity study, cd1, Oral, Gavage/Intubation, dose end: 16 GD
[18] = group: developmental, developmental / developmental malformation / bone / supernumerary
[19] = group: developmental, developmental / developmental malformation / bone / supernumerary + systemic / in life observation / body weight / fetal weight
[20] = group: maternal, systemic / in life observation / body weight / body weight + systemic / in life observation / body weight / body weight gain + systemic / in…
[21] = group: maternal, systemic / in life observation / clinical signs / [other] + systemic / in life observation / clinical signs / erythema + systemic / in life …
[22] = group: developmental, systemic / in life observation / body weight / fetal weight
[23] = systemic / in life observation / body weight / offspring (pup) weight gain
[24] = systemic / clinical chemistry / alkaline phosphatase (alp/alk) / alkaline phosphatase (alp/alk) + systemic / hematology / erythrocyte (rbc) …
[25] = group: developmental, developmental / developmental malformation / general / crown-rump length + systemic / in life observation / body weight / fetal weight
[26] = group: maternal, reproductive / reproductive performance / resorptions / resorptions + systemic / in life observation / body weight / body weight + systemic…
[27] = systemic / clinical chemistry / alkaline phosphatase (alp/alk) / alkaline phosphatase (alp/alk) + systemic / pathology microscopic / bone / …
[28] = systemic / hematology / hematocrit (hct) / hematocrit (hct) + systemic / hematology / hemoglobin (hgb) / hemoglobin (hgb)
[29] = group: offspring, developmental / offspring survival late / viability index / viability index + developmental / offspring survival late / lactation index / …
[30] = group: offspring, developmental / offspring survival late / viability index / viability index + reproductive / offspring survival early / dead fetuses / dead …
[31] = group: parental, systemic / in life observation / body weight / body weight gain
[32] = group: parental, systemic / in life observation / body weight / body weight gain + systemic / in life observation / body weight / body weight + systemic / …
[33] = group: reproductive, reproductive / reproductive performance / gestational length / gestational length + reproductive / reproductive performance / dystocia / …
[34] = systemic / pathology microscopic / thyroid gland / neoplasm nos + systemic / in life observation / body weight / body weight + systemic / in…
[35] = group: developmental, developmental / offspring survival late / viability index / viability index
[36] = group: maternal, reproductive / offspring survival early / dead fetuses / dead fetuses + reproductive / offspring survival early / litter size / litter size
[37] = group: parental, systemic / in life observation / food consumption / food consumption + systemic / in life observation / mortality / mortality
[38] = systemic / in life observation / body weight / body weight gain + systemic / in life observation / body weight / dam weight + systemic / in …
[39] = systemic / clinical chemistry / alkaline phosphatase (alp/alk) / alkaline phosphatase (alp/alk) + systemic / in life observation / body …
[40] = systemic / organ weight / adrenal gland / absolute + systemic / organ weight / adrenal gland / relative to body weight + systemic / …
[41] = systemic / clinical chemistry / glucose / glucose
[42] = systemic / clinical chemistry / glucose / glucose + systemic / clinical chemistry / lactic acid dehydrogenase (ldh) / lactic acid …
[43] = group: developmental, developmental / developmental malformation / bone / supernumerary + developmental / developmental malformation / bone / [other] + …
[44] = group: maternal, reproductive / reproductive performance / estrous cycle / corpora lutea

## CC1=C(/C=C/C(C)=C/C=C/C(C)=C/C(=O)O)C(C)(C)CCC1 [trans-Retinoic acid]
Rat [1]; [18]
  LEL: 2.5 mg/kg/day
Rat [1]; [19]
  LOAEL: > 20 mg/kg/day
  NEL: 1 mg/kg/day
  NOAEL: ≥ 20 mg/kg/day
Rat [1]; [20]
  LOAEL: > 20 mg/kg/day
  NOAEL: ≥ 20 mg/kg/day
Rat [1]; [21]
  LEL: 1 mg/kg/day
  NEL: < 1 mg/kg/day
Rat [2]
  LEL: 2.5 mg/kg/day
  LOAEL: > 2.5 mg/kg/day
  NEL: < 2.5 mg/kg/day
  NOAEL: ≥ 2.5 mg/kg/day
rabbit; [22]
  LEL: 0.5 mg/kg/day
  LOAEL: > 0.5 mg/kg/day
  NEL: 0.05 mg/kg/day
  NOAEL: ≥ 0.5 mg/kg/day
rabbit; [20]
  LEL: 0.05 mg/kg/day
  LOAEL: > 0.5 mg/kg/day
  NEL: < 0.05 mg/kg/day
  NOAEL: ≥ 0.5 mg/kg/day
Rat [3]; [23]
  LOAEL: > 6 mg/kg/day
  NOAEL: ≥ 6 mg/kg/day
Rat [3]; systemic / in life observation / clinical signs / impaired foot spread
  LEL: 2.5 mg/kg/day
Rat [4]
  LEL: 5 mg/kg/day
  LOAEL: > 10 mg/kg/day
  NEL: 2.5 mg/kg/day
  NOAEL: ≥ 10 mg/kg/day
Rat [5]
  LEL: 0.5 mg/kg/day
  LOAEL: > 5 mg/kg/day
  NEL: < 0.5 mg/kg/day
  NOAEL: ≥ 5 mg/kg/day
Rat [6]; [24]
  LOAEL: > 50 mg/kg/day
  NEL: 1 mg/kg/day
  NOAEL: ≥ 50 mg/kg/day
Rat [6]; systemic / clinical chemistry / alkaline phosphatase (alp/alk) / alkaline phosphatase (alp/alk) + systemic / pathology microscopic / lymph …
  LEL: 4 mg/kg/day
Rat [7]; [25]
  LEL: 48.1 mg/kg/day
  LOAEL: > 144 mg/kg/day
  NEL: 24 mg/kg/day
  NOAEL: ≥ 144 mg/kg/day
Rat [7]; [26]
  LOAEL: > 144 mg/kg/day
  NEL: 48.1 mg/kg/day
  NOAEL: ≥ 144 mg/kg/day
Rat [7]; group: maternal, systemic / in life observation / body weight / body weight + systemic / in life observation / clinical signs / abnormal gait + systemic / in…
  LEL: 96.1 mg/kg/day
Mouse [8]; [27]
  LOAEL: > 100 mg/kg/day
  NOAEL: ≥ 100 mg/kg/day
Mouse [8]; [28]
  LEL: 3 mg/kg/day
  NEL: < 3 mg/kg/day

## C=CCOC(Cn1ccnc1)c1ccc(Cl)cc1Cl (stereo unspecified) [Imazalil]
Rat [9]; [29]
  LEL: 5 mg/kg/day
  NEL: < 5 mg/kg/day
Rat [9]; [30]
  LOAEL: 80 mg/kg/day
  NOAEL: 20 mg/kg/day
Rat [9]; [31]
  NEL: 20 mg/kg/day
  NOAEL: 20 mg/kg/day
Rat [9]; [32]
  LEL: 80 mg/kg/day
  LOAEL: 80 mg/kg/day
Rat [9]; group: reproductive, reproductive / reproductive performance / gestational length / gestational length
  LOAEL: 80 mg/kg/day
Rat [9]; [33]
  LEL: 80 mg/kg/day
  NEL: 20 mg/kg/day
  NOAEL: 20 mg/kg/day
Rat [10]; systemic / pathology microscopic / liver / pigmentation
  LEL: 14.6 mg/kg/day
Rat [10]; systemic / pathology microscopic / liver / pigmentation + systemic / clinical chemistry / alanine aminotransferase (alt/sgpt) / alanine …
  NEL: 3.6 mg/kg/day
Rat [10]; [34]
  LOAEL: 65.8 mg/kg/day
  NOAEL: 10.8 mg/kg/day
Rat [11]; [35]
  LEL: 80 mg/kg/day
  LOAEL: > 80 mg/kg/day
  NEL: 20 mg/kg/day
  NOAEL: ≥ 80 mg/kg/day
Rat [11]; [36]
  LEL: 80 mg/kg/day
  LOAEL: > 80 mg/kg/day
  NEL: 20 mg/kg/day
  NOAEL: ≥ 80 mg/kg/day
Rat [11]; [37]
  LEL: 80 mg/kg/day
  LOAEL: > 80 mg/kg/day
  NEL: 20 mg/kg/day
  NOAEL: ≥ 80 mg/kg/day
Mouse [12]; systemic / in life observation / body weight / body weight gain
  LOAEL: 80 mg/kg/day
Mouse [12]; [38]
  LEL: 80 mg/kg/day
  NEL: 40 mg/kg/day
  NOAEL: 40 mg/kg/day
Mouse [13]
  LEL: 28 mg/kg/day
  LOAEL: 28 mg/kg/day
  NEL: 6.67 mg/kg/day
  NOAEL: 6.67 mg/kg/day
Mouse [14]
  LEL: 38.6 mg/kg/day
  LOAEL: 38.6 mg/kg/day
  NEL: 9.5 mg/kg/day
  NOAEL: 9.5 mg/kg/day
dog; [39]
  LOAEL: 20 mg/kg/day
  NEL: 1.25 mg/kg/day
  NOAEL: 2.5 mg/kg/day
dog; systemic / organ weight / liver / absolute + systemic / organ weight / liver / relative to body weight
  LEL: 2.5 mg/kg/day
Rat [15]; [40]
  LOAEL: 37.9 mg/kg/day
  NOAEL: 18.7 mg/kg/day
Rat [15]; systemic / organ weight / liver / absolute + systemic / organ weight / adrenal gland / absolute + systemic / organ weight / adrenal gland / …
  NEL: 90.1 mg/kg/day
Rat [16]; [41]
  LEL: 1.25 mg/kg/day
  NEL: < 1.25 mg/kg/day
Rat [16]; [42]
  LOAEL: 20 mg/kg/day
  NOAEL: 5 mg/kg/day
Mouse [17]; [18]
  LEL: 80 mg/kg/day
  LOAEL: 80 mg/kg/day
Mouse [17]; [43]
  NEL: 40 mg/kg/day
  NOAEL: 40 mg/kg/day
Mouse [17]; [44]
  LEL: 10 mg/kg/day
  NEL: < 10 mg/kg/day
Mouse [17]; group: maternal, systemic / in life observation / body weight / body weight gain + systemic / in life observation / food consumption / food consumption
  LOAEL: 40 mg/kg/day
Mouse [17]; group: maternal, systemic / in life observation / body weight / body weight gain + systemic / in life observation / food consumption / food consumption + …
  NOAEL: 10 mg/kg/day
